# In PMC11645656, “MRGPRX4 mediates phospho-drug associated pruritus in a humanized mouse model” (Science translational medicine, 2024):
# Where “and” joins values, the source holds several entries; their conditions need not be identical. Equal entries are not always repeated.
# Experiments:
# MRGPRX4 R82A = molecular target: T1, MRGPRX4 R82A (Homo sapiens, UniProt Q96LA9, L83S/R82A); test: Calcium mobilization assay (FLIPR), MRGPRX4 R82A mutant; format: cell-based
# T1 construct: expressed in transfected cells; host or cells: HEK293T, transient
# T1 sequence (Q96LA9 whole entry R82A/L83S): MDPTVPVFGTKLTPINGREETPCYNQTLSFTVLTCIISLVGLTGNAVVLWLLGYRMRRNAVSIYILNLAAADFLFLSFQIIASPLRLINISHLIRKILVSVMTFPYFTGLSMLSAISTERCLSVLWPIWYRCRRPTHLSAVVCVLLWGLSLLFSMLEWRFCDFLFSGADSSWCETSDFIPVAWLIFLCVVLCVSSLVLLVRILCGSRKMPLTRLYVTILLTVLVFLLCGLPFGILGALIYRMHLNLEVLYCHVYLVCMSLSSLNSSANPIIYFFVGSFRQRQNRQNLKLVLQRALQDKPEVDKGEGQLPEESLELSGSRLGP
# Description: (§1) Fig. 3. […] (A) Cryo-EM density map of MRGPRX4-Gq in complex with fospropofol. (B) The density map of fospropofol and R82 of MRGPRX4. (C and D) Key molecular interactions between fospropofol and the hydrophilic (C) and hydrophobic (D) part of the agonist binding pocket of MRGPRX4. Amino acid residues interacting with fospropofol are shown as sticks. Hydrogen bond is shown as cyan dashed lines. […] Data are from at least three independent experiments, each performed in triplicate, and reported as the mean ± SEM. (E) and (F) were collected from the same sets of experiments.
# (§2) To generate murine Mrgprs expressing cells, HEK293T cells (ATCC) were seeded on poly-D-lysine coated 96 well plate at 25,000 cells per well one day prior to transfection. HEK293T cells were transiently co-transfected with the mammalian expression plasmids carrying cDNA encoding the murine Mrgpr genes and plasmid inserted with cDNA encoding murine α-subunit of the heterotrimeric G15 protein (Gα15) in triplicates using Lipofectamine LTX reagents (Thermo Scientific). To generate WT, S83L, and alanine mutant MRGPRX4-expressing cells, HEK293T cells were seeded on poly-D-lysine coated 384 well plate at 12,000 cells per well one day prior to transfection. […]
# MRGPRX4 R95A = molecular target: T2, MRGPRX4 R95A (Homo sapiens, UniProt Q96LA9, L83S/R95A); test: Calcium mobilization assay (FLIPR), MRGPRX4 R95A mutant; format: cell-based
# T2 construct: expressed in transfected cells; host or cells: HEK293T, transient
# T2 sequence (Q96LA9 whole entry L83S/R95A): as the sequence (Q96LA9 whole entry R82A/L83S) above, with A82R, R95A counted along it
# Description: as §1, §2
# MRGPRX4 Y250A = molecular target: T3, MRGPRX4 Y250A (Homo sapiens, UniProt Q96LA9, L83S/Y250A); test: Calcium mobilization assay (FLIPR), MRGPRX4 Y250A mutant; format: cell-based
# T3 construct: expressed in transfected cells; host or cells: HEK293T, transient
# T3 sequence (Q96LA9 whole entry L83S/Y250A): as the sequence (Q96LA9 whole entry R82A/L83S) above, with A82R, Y250A counted along it
# Description: as §1, §2
# MRGPRX4 R86A = molecular target: T4, MRGPRX4 R86A (Homo sapiens, UniProt Q96LA9, L83S/R86A); test: Calcium mobilization assay (FLIPR), MRGPRX4 R86A mutant; format: cell-based
# T4 construct: expressed in transfected cells; host or cells: HEK293T, transient
# T4 sequence (Q96LA9 whole entry L83S/R86A): as the sequence (Q96LA9 whole entry R82A/L83S) above, with A82R, R86A counted along it
# Description: as §1, §2
# WT mice = test: Itch behavioral study in WT mice across concentrations (fig. S4)
# Description: Experimenters and subjects scoring the recorded videos were both blind to the mouse genotype and tested compounds. Behavioral tests comparing NP2-WT and NP2-X4+ scratching behavior were 6–12weeks old littermates including both genders. In brief, on the day preceding the experiment, animals were acclimated to the test chamber for at least 30 min and the experimenters performed mock injections 1–2 times in between. On the day of experiments, animals were habituated in test chambers for 10 min before receiving subcutaneous injection of 50ul compounds. Videos were recorded for 30 min after the injection. A bout of scratching was defined as a sustained scratching movement initiated by hindpaws toward the injection site (until the pause of the movement / withdrawal of the hindpaw). Scratching bouts were quantified within the 30 min record sessions.
# NP2-X4+ DRG neurons = test: GCaMP6s calcium imaging of cultured NP2-X4+ DRG neurons; format: cell-based, mouse; conditions: 10 μM phospho-drugs; 1 mM CQ
# Description: Fig. 2. Phosphate monoester prodrugs induce itch in NP2-MRGPRX4+ mice through activating NP2 primary sensory neurons. (A) Mating strategy to generate NP2-X4+ mice. (B) In situ hybridization showing MRGPRX4 transcripts (magenta) in NP2-X4+ DRG as indicated by arrowheads (left) but not in littermate control NP2-WT (right). NP2 subpopulation accounts for 5% of total DRG neurons. DAPI, blue. Scale bar, 50 μm. […]. Data are expressed as mean ± SEM. *p< 0.05, **p< 0.01 and ***p< 0.001 by two-tailed unpaired Student’s t-test. ns = no statistical significance observed. (D and E) Traces of average (top, depicted as mean ± 95% confidence interval) and individual (bottom, reflected by the heatmap) calcium activity, measured by fluorescence intensity normalized to the baseline intensity (FT/F0) over time of NP2-X4+ (D) and NP2-WT (E) DRG neurons labelled with GCaMP6s (n = 110–150 neurons pooled from 3–7 independent culture vessels from 2–4 mice in each condition). 10 μM phospho-drugs and 1 mM CQ were added as indicated by the arrowheads. Neurons with FT/F0 > 1.5 after compound application were considered a positive responder. NP2-X4+: NP2-MRGPRX4+; DRG, dorsal root ganglia; CQ: chloroquine.
# The procedures were performed following previously established protocols ([15]). Murine DRGs (from both male and female) were harvested from all spinal segments and digested in dispase (5 mg/ml) / type I collagenase (1 mg/ml) enzyme mix at 37 °C for an hour. Enzyme mix was replaced with complete DH10 media (90% DMEM/F12, 10% FBS, penicillin (100 units/ml), and streptomycin (100 μg/ml)) and gently triturated with 1 ml pipette tip until the media turned cloudy without visible tissue chunks. Dissociated tissues were filtered through a 70 μm filter and spun down 1250 rpm for 5 min at RT. Supernatant was removed and the cell pellet was resuspended in complete DH10 media. Cell suspension was then added on top of poly-D-lysine- and laminin-coated coverslips and sat for 1–2 h at 37°C. Complete DH10 media supplemented with NGF (50 ng/ml) was then added into the vessel. Neurons were allowed to recover overnight at 37°C for the next-day calcium imaging experiment.
# Calcium imaging data was collected with a Nikon Eclipse TE 200 microscope. Time series GCaMP6 fluorescence intensity was acquired through the FITC/GFP channel. Before the imaging, cultured neurons were washed and equilibrated in CIB for 30 min at 37°C. In each trial, compounds (as indicated in the results) were added into the imaging chamber after a 30 s baseline GCaMP6 activity was collected. […] Neurons with GCaMP6 signal rose above 50% of the baseline intensity after compound application were counted as positive responders and the percentage of responding neurons was calculated. […]
# MRGPRX4 W158A = molecular target: T5, MRGPRX4 W158A (Homo sapiens, UniProt Q96LA9, L83S/W158A); test: Calcium mobilization assay (FLIPR), MRGPRX4 W158A mutant; format: cell-based; conditions: for calcium mobilization response (Fig. 3E and 3F dose-response): W158A
# T5 construct: expressed in transfected cells; host or cells: HEK293T, transient
# T5 sequence (Q96LA9 whole entry L83S/W158A): as the sequence (Q96LA9 whole entry R82A/L83S) above, with A82R, W158A counted along it
# Description: as §1
# To generate murine Mrgprs expressing cells, HEK293T cells (ATCC) were seeded on poly-D-lysine coated 96 well plate at 25,000 cells per well one day prior to transfection. HEK293T cells were transiently co-transfected with the mammalian expression plasmids carrying cDNA encoding the murine Mrgpr genes and plasmid inserted with cDNA encoding murine α-subunit of the heterotrimeric G15 protein (Gα15) in triplicates using Lipofectamine LTX reagents (Thermo Scientific). To generate WT, S83L, and alanine mutant MRGPRX4-expressing cells, HEK293T cells were seeded on poly-D-lysine coated 384 well plate at 12,000 cells per well one day prior to transfection. Mammalian expression plasmids pLX304 (vector from Addgene) carrying different MRGPRX4 coding sequences were transiently transfected into HEK293T cells in triplicates with Lipofectamine LTX reagents (Thermo Scientific). Intracellular calcium mobilization assays were performed after one day of transfection. Murine Mrgprs tested include Mrgpra1, Mrgpra2a, Mrgpra2b, Mrgpra3, Mrgpra4, Mrgpra6, Mrgpra9, Mrgpra10, Mrgpra11, Mrgpra12, Mrgpra14, Mrgprb5, Mrgprb6, Mrgprb10, Mrgprb11, and Mrgprc11. WT and mutant MRGPRX4 constructs tested include WT, S83L, R82A, R86A, R95A, W158A, Y250A, and Y254A.
# To generate MRGPRX4 mutant constructs, site-directed mutagenesis was performed using Q5® Site-Directed Mutagenesis Kit (New England Biolabs). The primers were designed by the NEBaseChanger tool, with forward primers spanning designated mutated sequence corresponding to the desired amino acid substitutions. The plasmids with WT MRGPRX4 sequence served as the templates for polymerase chain reaction (PCR) amplification with Q5 high-fidelity polymerase and respective primer pairs according to the manufacturer’s conditions. Then, the linear PCR products underwent phosphorylation, ligation, and simultaneous degradation of template DNA by incubating them with a KLD enzyme mix consisting of T4 polynucleotide kinase, T4 DNA ligase, and DpnI at room temperature for 5 min. Subsequently, the mutated circular plasmids were transformed into NEB 5-alpha competent E. coli by heat-shock method, and the successfully transformed bacteria were selected on LB plates with selection antibiotics. The next day, the transformant colonies were picked, expanded in LB broth containing selection antibiotics overnight. Plasmids were isolated using QIAprep Spin Miniprep Kit (Qiagen) and subjected to sequencing to confirm the mutation.
# [1] = 1 mM subcutaneous nape injection
# [2] = 10 mM subcutaneous nape injection
Compound,Calcium mobilization response at alanine mutant R82A vs WT (MRGPRX4 R82A),Calcium mobilization response at alanine mutant R95A vs WT (MRGPRX4 R95A),Calcium mobilization response at alanine mutant Y250A vs WT (MRGPRX4 Y250A),Calcium mobilization response at alanine mutant R86A vs WT (MRGPRX4 R86A),Scratching bouts (each well represents individual mouse) (WT mice; [1]),Scratching bouts (each well represents individual mouse) (WT mice; [2]),Calcium response of NP2-X4+ neurons (NP2-X4+ DRG neurons),Calcium mobilization response at alanine mutant W158A vs WT (MRGPRX4 W158A),calcium mobilization response (Fig. 3E and 3F dose-response) (MRGPRX4 W158A; 0.000333 M),calcium mobilization response (Fig. 3E and 3F dose-response) (MRGPRX4 W158A; 0.001 M),calcium mobilization response (Fig. 3E and 3F dose-response) (MRGPRX4 W158A; […])
O=C1NC(c2ccccc2)(c2ccccc2)C(=O)N1COP(=O)(O)O [Fosphenytoin],either greatly attenuated or abolished,either greatly attenuated or abolished,disrupted calcium mobilization,either greatly attenuated or abolished,0 (2×) and 16 (2×) and 11 and 26,3 and 4 and 1 and 0 and 26,strong calcium transients,disrupted calcium mobilization,-15.9549,-17.9356,-11.6633
CC(C)c1cccc(C(C)C)c1OCOP(=O)(O)O [Fospropofol],either greatly attenuated or abolished,either greatly attenuated or abolished,disrupted calcium mobilization,either greatly attenuated or abolished,16 and 12 and 11 and 28,5 and 20 and 15 and 16,strong calcium transients,disrupted calcium mobilization,–,–,–
